Measured values taken from paper PMC6336783, “Crystal structure of the multidrug resistance regulator RamR complexed with bile acids” (Scientific Reports, 2019).

T1: RamR (Salmonella typhimurium, UniProt Q8ZR43)
T1 construct: made in house
T1 sequence (Q8ZR43 1-193): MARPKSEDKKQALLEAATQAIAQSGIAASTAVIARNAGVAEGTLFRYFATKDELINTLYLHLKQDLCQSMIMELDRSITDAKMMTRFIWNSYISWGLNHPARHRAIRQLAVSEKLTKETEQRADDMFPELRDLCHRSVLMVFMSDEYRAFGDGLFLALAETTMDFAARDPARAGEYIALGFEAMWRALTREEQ


Experiments:
[1] = system: ramA mRNA levels in ∆ramR Salmonella strain; assay type: cell-based, Salmonella enterica serovar Typhimurium; details: LB broth with 5 mM bile acid, qRT-PCR
Procedure: (§1) The bacterial strains and the plasmids used in this study are listed in Supplementary Table 3. The S. enterica serovar Typhimurium strains were the wild-type strain ATCC14028s[21] and its ∆ramR mutant (which was produced as described previously)[22]. Bacterial strains were grown at 37 °C in Luria–Bertani broth supplemented, when appropriate, with ampicillin (100 µg/ml), kanamycin (25 µg/ml) or chloramphenicol (25 µg/ml).
(§2) Bacteria were grown until mid-log phase (OD600 of 0.6) and harvested by centrifugation. Pelleted cells were stabilized with RNAprotect Bacteria Reagent (Qiagen) and stored at −80 °C until needed. Total RNA was extracted using an RNeasy Mini kit (Qiagen). Removal of residual genomic DNA was performed using a Turbo DNA-free kit (Ambion) and checked by negative PCR amplification of the chromosomal sequence. RNA integrity was verified by electrophoresis on a 1% agarose gel. Total RNA (1.5 µg) was reverse-transcribed using random hexamers and the Superscript III First Strand Synthesis System (Applied Biosystems). The expression level of each gene of interest was calculated as the average of the results from three independent cDNA samples. For each cDNA sample and each gene, qRT-PCR runs were performed in duplicated wells and the primers used for qRT-PCR are listed in Supplementary Table 4. The cycling conditions were: 95 °C for 5 min followed by 40 cycles of 95 °C for 10 s and then 60 °C for 15 s. After each run, amplification specificity and the absence of primer dimers were verified using a dissociation curve, acquired by heating the PCR products from 60 °C to 95 °C. The relative quantities of transcripts were determined using a standard curve and normalized against the geometric mean of three reference genes (gmk, gyrB and rrs).

[2] = biological target: interaction between RamR and PramA (Salmonella typhimurium, UniProt Q8ZR43); experiment: SPR inhibition of RamR binding to the 100-bp DNA fragment with the RamR-binding site; details: for inhibition at 500 µM: read-out: inhibition of the interaction between RamR and the DNA fragment
RamR = biological target: T1, RamR; experiment: SPR binding of bile acids to immobilized RamR; set-up: species or system Salmonella enterica serovar Typhimurium
Procedure: Because cholic and chenodeoxycholic acids induce ramA in a RamR-dependent manner, we hypothesized that these compounds are recognized by RamR. To test the possibility that cholic and chenodeoxycholic acids may bind to RamR, we employed surface plasmon resonance (SPR) analysis using a Biacore T200 instrument (GE Healthcare).
Dissociation was also recorded for 2 min.

[3] = system: ramA mRNA levels in wild-type S. Typhimurium strain; assay type: cell-based, Salmonella enterica serovar Typhimurium; details: LB broth with 5 mM bile acid, qRT-PCR
Procedure: as §1, §2

[4] = biological target: the molecule itself; experiment: crystal structure; co-crystals of RamR with a 5-fold molar excess of cholic or chenodeoxycholic acid; hanging drops, vapor diffusion, 25 °C; 20 mM sodium phosphate (pH 6.6), 75 mM NaCl, 2 mM DTT

Row | Molecule | fold difference in ramA mRNA levels relative to the control in the same strain [1] [fold] | IC50 [2] [µM] | inhibition at 500 µM [2] [%] | Kd (RamR) [µM] | fold difference in ramA mRNA levels relative to the control in the same strain [3] [fold] | binding result [4]
1 | C[C@H](CCC(=O)O)[C@H]1CC[C@H]2[C@@H]3[C@H](O)C[C@@H]4C[C@H](O)CC[C@]4(C)[C@H]3CC[C@]12C [chenodeoxycholic acid, 3α, 7α-dihydroxy-5β-cholan-24-oic acid] | 0.8 | 19.2 | ≥ 90 | 65.3 |  | 
2 | C[C@H](CCC(=O)O)[C@H]1CC[C@H]2[C@@H]3[C@H](O)C[C@@H]4C[C@H](O)CC[C@]4(C)[C@H]3C[C@H](O)[C@]12C [cholic acid, 3α, 7α, 12α-trihydroxy-5β-cholan-24-oic acid] | 1.6 | 33 | ≥ 90 | 60.5 |  | 
3 | C[C@H](CCC(=O)O)[C@H]1CC[C@H]2[C@@H]3CC[C@@H]4C[C@H](O)CC[C@]4(C)[C@H]3C[C@H](O)[C@]12C [deoxycholic acid, 3α, 12αdihydroxy-5β-cholan-24-oic acid] | 2.7 | 318 | ~50 |  | 1.7 | 
4 | RamR (natural protein, Salmonella enterica serovar Typhimurium, RamR, TetR-family transcriptional repressor of ramA, Salmonella enterica serovar Typhimurium; ligand-free structure PDB 3VVX; also called multidrug resistance regulator RamR; local transcriptional repressor RamR) ARPKSEDKKQALLEAATQAIAQSGIAASTAVIARNAGVAEGTLFRYFATKDELINTLYLHLKQDLCQSMIMELDRSITDAKMMTRFIWNSYISWGLNHPARHRAIRQLAVSEKLTKETEQRADDMFPELRDLCHRSVLMVFMSDEYRAFGDGLFLALAETTMDFAARDPARAGEYIALGFEAMWRALTREEQ |  |  |  |  |  | binds
